Source: paper PMC11963559, “Identification of novel thiazole derivatives as flaviviral protease inhibitors effective against Dengue (DENV2) and Japanese encephalitis viruses” (Antimicrobial Agents and Chemotherapy, 2025)

Target: T1, DENV2 NS2B–NS3 protease (Dengue virus type 2, UniProt P14340)
T1 construct: Activity of recombinant dengue 2 virus NS3 protease in the presence of a truncated NS2B co-factor; The N-terminal domain of NS3 contains a highly conserved protease-active core; made in house; host or cells: Escherichia coli BL21(DE3)
T1 sequence (P14340 1476-1653): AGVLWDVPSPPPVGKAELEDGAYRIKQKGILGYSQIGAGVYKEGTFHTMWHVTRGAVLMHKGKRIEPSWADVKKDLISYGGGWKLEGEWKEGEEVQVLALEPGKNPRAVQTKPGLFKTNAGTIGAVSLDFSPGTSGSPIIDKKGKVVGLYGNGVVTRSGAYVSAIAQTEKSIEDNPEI
T1 sequence (P14340 1398-1437): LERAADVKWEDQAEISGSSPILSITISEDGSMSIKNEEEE
Assay: In vitro DENV2 NS2B/NS3pro inhibition assay using a FRET substrate
Type: biochemical
Conditions: for IC50: IC50 (µM)
Method: To assess the anti-DENV NS2B–NS3 activity of the compounds, we expressed the DENV2 NS2B–NS3 protease in BL21DE3 cells and subsequently purified it using Ni-NTA affinity chromatography, as outlined in Materials and Methods ([39], [40]). The protease activity assay was performed using different concentrations (1, 2.5, 5, 10, 25, 50, 75, and 100 µM) of a fluorogenic substrate (Abs-Nle-Lys-Arg-Arg-Ser-3-(NO2)Tyr) at various time points (5, 15, 30, 45, and 60 min), as described previously ([39], [41]). […] Therefore, all subsequent assays were conducted with a 1 h incubation time.
The selected compounds were analyzed using in vitro protease assays performed in black 96-well plates. […] All assays were performed in triplicate. The release of free AMC was measured using a Varioskan LUX multimode microplate reader (Thermo Fisher Scientific) at excitation and emission wavelengths of 380 and 460 nm, respectively. Control fluorescence values obtained in the absence of inhibitors were considered 100%, and those obtained in the presence of inhibitors were calculated as the percentage of inhibition of the control using Microsoft Excel and plotted using Origin Pro 2023b. The background AMC in the absence of protease was subtracted before data analysis. Further, protease assay was done using different concentration of the compounds (1, 10, and 100 µM) to evaluate the IC50 for the in vitro assay. IC50 curves were fitted and determined by fitting the nonlinear equation in Origin2023b software. A similar approach was used to analyze the enzymatic kinetics of protease inhibition. The reaction progress was monitored by the release of free aminomethylcoumarin (AMC), as previously described. The substrate was incubated with or without the inhibitor in the aforementioned reaction buffer in the presence of varying concentrations of the substrate. The reactions were initiated by the addition of the NS2B–NS3 protease. Protease activity was monitored for 1 h based on the initial rate of increase in fluorescence intensity at 460 nm, with an excitation wavelength of 380 nm. The results were analyzed using Origin Pro 2023b and the Michaelis–Menten equation to obtain the apparent Michaelis–Menten constants and maximal velocities. All assays were performed in triplicate. For each tested compound, two different concentrations of the inhibitor (0, 10, and 25 µM) were used at various concentrations (0–250 μM) of the substrate. The mechanism of inhibition was determined by observing the deviations in the apparent Km and Vmax values.

[1] = DENV2 NS2B–NS3 protease inhibitory activity, 5 µM substrate, 10 nM NS2b-NS3pro, compounds at 1, 10 and 100 µM, 1 h at RT, compounds 3a-3r
[2] = DENV protease inhibitory activity, 5 µM substrate, 10 nM NS2b-NS3pro, compounds at 1, 10 and 100 µM, 1 h at RT, compounds 3s-3an
[3] = DENV protease inhibitory activity, 5 µM substrate, 10 nM NS2b-NS3pro, compounds at 1, 10 and 100 µM, 1 h at RT, compounds 3ao–3av

SMILES	IC50 [1]	IC50 [2]	other results
Cc1ccc(/C=N/Nc2nc(-c3cccc([N+](=O)[O-])c3)cs2)cc1 [3a]	> 100 µM	–	–
COc1ccc(OC)c(/C(C)=N/Nc2nc(-c3cccc([N+](=O)[O-])c3)cs2)c1 [3aa]	–	> 100 µM	IC50 (µM), DENV protease inhibitory activity (5 µM substrate, 10 nM NS2b-NS3pro, compounds at 1, 10 and 100 µM, 1 h at RT, compounds 3s-3an): completely lost its activity
COc1ccc(/C(C)=N/Nc2nc(-c3cccc([N+](=O)[O-])c3)cs2)cc1OC [3ab]	–	31.4 µM	fold improvement in potency in comparison with 3e (protease IC50, -H replaced by -CH3 at R1): ~ 16 fold
C/C(=N\Nc1nc(-c2cccc([N+](=O)[O-])c2)cs1)c1ccc(Cl)cc1 [3ac]	–	> 100 µM	–
C/C(=N\Nc1nc(-c2cccc([N+](=O)[O-])c2)cs1)c1ccc(F)cc1 [3ad]	–	> 100 µM	–
C/C(=N\Nc1nc(-c2ccc(Cl)cc2)cs1)c1ccc(C)cc1 [3ae]	–	> 100 µM	–
C/C(=N\Nc1nc(-c2ccc(Cl)cc2)cs1)c1ccc(O)cc1 [3af]	–	144 µM	–
C/C(=N\Nc1nc(-c2ccc(Cl)cc2)cs1)c1cc(O)cc(O)c1 [3ag]	–	92.3 µM	–
COc1cccc(/C(C)=N/Nc2nc(-c3ccc(Cl)cc3)cs2)c1 [3ah]	–	263 µM	–
COc1ccc(/C(C)=N/Nc2nc(-c3ccc(Cl)cc3)cs2)cc1 [3ai]	–	399 µM	–
COc1ccc(/C(C)=N/Nc2nc(-c3ccc(Cl)cc3)cs2)c(OC)c1 [3aj]	–	> 100 µM	–
COc1ccc(OC)c(/C(C)=N/Nc2nc(-c3ccc(Cl)cc3)cs2)c1 [3ak]	–	124 µM	–
COc1ccc(/C(C)=N/Nc2nc(-c3ccc(Cl)cc3)cs2)cc1OC [3al]	–	156 µM	–
C/C(=N\Nc1nc(-c2ccc(Cl)cc2)cs1)c1ccc(F)cc1 [3an]	–	> 100 µM	–
C/C(=N\Nc1nc(-c2ccccc2)cs1)c1ccc(O)cc1 [3ao]	–	–	IC50 [3]: 114 µM
C/C(=N\Nc1nc(-c2ccc(C)cc2)cs1)c1ccc(O)cc1 [3ap]	–	–	IC50 [3]: 56 µM
C/C(=N\Nc1nc(-c2ccc(F)cc2)cs1)c1ccc(O)cc1 [3ar]	–	–	IC50 [3]: 250 µM
C/C(=N\Nc1nc(-c2ccccc2)cs1)c1cc(O)cc(O)c1 [3as]	–	–	IC50 [3]: > 100 µM
C/C(=N\Nc1nc(-c2ccc(C)cc2)cs1)c1cc(O)cc(O)c1 [3at]	–	–	IC50 [3]: 27.7 µM
C/C(=N\Nc1nc(-c2ccc(F)cc2)cs1)c1cc(O)cc(O)c1 [3av]	–	–	IC50 [3]: 37.1 µM
Cc1cc(C)cc(/C=N/Nc2nc(-c3cccc([N+](=O)[O-])c3)cs2)c1 [3b]	> 100 µM	–	–
COc1ccccc1/C=N/Nc1nc(-c2cccc([N+](=O)[O-])c2)cs1 [3c]	229 µM	–	–

SMILES	IC50 [1]	IC50 [2]	other results
COc1ccc(OC)c(/C=N/Nc2nc(-c3cccc([N+](=O)[O-])c3)cs2)c1 [3d]	139 µM	–	–
COc1ccc(/C=N/Nc2nc(-c3cccc([N+](=O)[O-])c3)cs2)cc1OC [3e]	502 µM	–	–
O=[N+]([O-])c1cccc(-c2csc(N/N=C/c3ccccc3F)n2)c1 [3f]	117 µM	–	–
O=[N+]([O-])c1cccc(-c2csc(N/N=C/c3cccc(Cl)c3)n2)c1 [3g]	299 µM	–	–
O=[N+]([O-])c1cccc(-c2csc(N/N=C/c3ccccc3Br)n2)c1 [3h]	342 µM	–	–
O=[N+]([O-])c1cccc(-c2csc(N/N=C/c3cccc(Br)c3)n2)c1 [3i]	413 µM	–	–
Cc1ccc(/C=N/Nc2nc(-c3ccc(Cl)cc3)cs2)cc1 [3j]	603 µM	–	–
Cc1cc(C)cc(/C=N/Nc2nc(-c3ccc(Cl)cc3)cs2)c1 [3k]	> 100 µM	–	–
COc1ccccc1/C=N/Nc1nc(-c2ccc(Cl)cc2)cs1 [3l]	> 100 µM	–	–
COc1ccc(OC)c(/C=N/Nc2nc(-c3ccc(Cl)cc3)cs2)c1 [3m]	216 µM	–	–
COc1ccc(/C=N/Nc2nc(-c3ccc(Cl)cc3)cs2)cc1OC [3n]	248 µM	–	–
Fc1ccccc1/C=N/Nc1nc(-c2ccc(Cl)cc2)cs1 [3o]	> 100 µM	–	–
Clc1ccc(-c2csc(N/N=C/c3cccc(Cl)c3)n2)cc1 [3p]	> 100 µM	–	–
Clc1ccc(-c2csc(N/N=C/c3ccccc3Br)n2)cc1 [3q]	> 100 µM	–	–
Clc1ccc(-c2csc(N/N=C/c3cccc(Br)c3)n2)cc1 [3r]	> 100 µM	–	–
C/C(=N\Nc1nc(-c2cccc([N+](=O)[O-])c2)cs1)c1ccc(C)cc1 [3t]	–	113 µM	–
C/C(=N\Nc1nc(-c2cccc([N+](=O)[O-])c2)cs1)c1ccc(O)cc1 [3u]	–	28.7 µM	–
C/C(=N\Nc1nc(-c2cccc([N+](=O)[O-])c2)cs1)c1cc(O)cc(O)c1 [3v]	–	27.4 µM	–
COc1ccccc1/C(C)=N/Nc1nc(-c2cccc([N+](=O)[O-])c2)cs1 [3w]	–	193 µM	–
COc1cccc(/C(C)=N/Nc2nc(-c3cccc([N+](=O)[O-])c3)cs2)c1 [3x]	–	387 µM	–
COc1ccc(/C(C)=N/Nc2nc(-c3cccc([N+](=O)[O-])c3)cs2)cc1 [3y]	–	328 µM	–
COc1ccc(/C(C)=N/Nc2nc(-c3cccc([N+](=O)[O-])c3)cs2)c(OC)c1 [3z]	–	171 µM	–
